Literature values in PMC6831561, “Pharmacological and Behavioral Effects of the Synthetic Cannabinoid AKB48 in Rats” (Frontiers in Neuroscience, 2019).
Where two headings read alike, the source gives them in different places.

Test system: extracellular DA levels
Conditions: ref De Luca et al., 2015, cited from earlier work

**Q.** Which “max increase of DA in the NAc shell” value (JWH-018 0.25 mg/kg ip, from 20 to 70 min, Miliano et al., 2016) does the source give for `CCCCCn1cc(C(=O)c2cccc3ccccc23)c2ccccc21` [JWH-018, Naphthalen-1-yl-(1-pentylindol-3-yl)methanone] here?
**A.** about 60%

**Q.** What about the “DA release in the NAc shell” value (JWH-018 0.25 mg/kg) of the same molecule?
**A.** increased DA release

**Q.** What about the “DA release in the NAc shell” value (JWH-018 high doses (1 and 3 mg/kg)) of the same molecule?
**A.** no effect

**Q.** And the “DA release in the NAc shell” value (JWH-018 lower (0.125 mg/kg) and higher (0.50 mg/kg) doses)?
**A.** ineffective
